Test results published in patent US12016834B2, “Small molecule inhibitors of SLC25A1” (GEORGETOWN UNIVERSITY, priority 2017, dated 2024).

Legend:
Format in all cases: cell-based, human
H1299 cells [1] = assay: Glycolysis: ECAR (Seahorse) and lactic acid levels
Procedure: Cells, reagents, antibodies, primers. The H1299 cell lines and other cell lines employed in this study were obtained from ATCC or from the tissue culture core facility at LCCC. Cells were grown in Dulbecco's Modified Eagle's Medium (DMEM, 25 mM glucose, with glutamine and pyruvate from Invitrogen; Carlsbad, CA) and supplemented with 10% fetal calf serum (FCS). […] The SLC25A1 specific shRNA vectors were purchased from Sigma. The vector expressing human SLC25A1 untagged or Flag-Myc epitope tagged were from Origene; Rockville, MD (#SC120727 and RC200657, respectively). The anti-SLC25A1 antibody used in immuno-blot was from Santa Cruz Biotech, #sc-86392 employed at 1:1000 dilution. Citrate, lactate, and PFK measurements were performed by using commercially available kits (Biovision (Milpitas, CA)).
(§1) Seahorse extracellular flux analyzer experiments. Cells derived from spheres or monolayer cultures were dissociated and plated overnight at 12,000 cells/well in DMEM with 10% FBS, 5 mM glucose, 1 mM pyruvate, 2 mM glutamine.
(§2) For the mitochondrial stress test, the media was replaced with DMEM without FBS or bicarbonate, containing 5 mM glucose, 1 mM pyruvate, 2 mM glutamine and placed in a CO2 free incubator at 37° C. for 1 hour, and then transferred to the Xf96 extracellular flux analyzer (Agilent; Santa Clara, CA). The program consisted of 3 measurements of OCR/ECAR before the injection of each drug: oligomycin (0.5 μM final concentration), FCCP (2 μM) and rotenone/antimycin (0.5 μM of each). For the glycolysis stress test, cells were plated overnight as above, and the media was washed twice the following day with DMEM without FBS, bicarbonate, glucose, glutamine or pyruvate, and incubated in this media in a CO2 free incubator with/without drug treatments at 37° C. for 4 hours. There were 3 measurements of OCR/ECAR before each injection: glucose (10 mM final concentration), oligomycin (0.5 […] (50 mM). For the analysis of glutamine oxidation, the protocol was the same as the glucose stress test, but with glutamine being the only compound injected (final concentration 4 mM) and OCR/ECAR measured for 60 minutes. When spheres were analyzed, they were dissociated with StemPro® Accutase® (Thermo Scientific; Waltham, MA) and plated under the same conditions as above as for the monolayers the day before the assay (H1299 spheres), or in stem cell media (See Stem Cell Media) with the wells coated in 15 μL of 2% geltrex diluted in DMEM:F12 (Thermo Scientific). The results were normalized to cell number.

H1299 spheres = assay: Cell cycle analysis of spheres; details: after three days of treatment
Procedure: Flow cytometry. Tumor cells were trypsinized and washed in 1×PBS. The cells were then stained with the antibodies of choice: CD166-PE (Biolegend), CD133-647 (Biolegend), or CD44 (Biolegend), in 1% BAS-PBS. The cell cycles of monolayers or spheres of the cells were analyzed by fixing the cells in cold 75% ethanol. The annexin V (Biolegend) and propidium iodide (Biolegend) experiments were carried out.

H1299 cells [2] = assay: Sphere forming / self-renewal assay
Procedure: Growth of monolayers and sphere cultures. Tumor cell lines were grown as monolayers in complete Dulbecco's Modified Eagle's Media (DMEM, Gibco; supplemented with 10% fetal bovine serum and 1% of 5,000 units/mL of penicillin-streptomycin (pen-strep), Gibco). To generate spheroids, cells were grown in Falcon bacteriological petri dishes coated with 2% poly(2-hydroxyethyl methacrylate) dissolved in 100% ethanol. The growth media was DMEM/F12 (Gibco) supplemented with 20 ng/mL of epidermal growth factor (EGF), 5 ng/mL of fibroblast growth factor, 0.375% 100× N2 supplements (Gibco), and 1% pen-strep. Monolayer cells were dissociated using 0.25% trypsin-edta (Gibco), whereas spheroid cultures were dissociated using StemPro Accutase (Gibco). Patient derived cell lines were grown as described below in the primary lung cultures section.
Self-renewal assays. Tumor cells cultured as spheroids were dissociated and diluted in 2× sphere media containing 1% methyl cellulose, which was previously dissolved in cold DMEM/F12 media. Either 200, 500, or 1000 cells were then plated in each 96 well and were incubated in the presence or absence of drugs, as indicated. The spheres were allowed to form for a period of a week to ten days, at which point they were counted. Six biological replicates were used for quantification of the results.

MP2 cells = assay: Seahorse OCR and ATP in patient-derived cells
Procedure: (§3) Primary lung cancer cultures and GMSC. Surgical samples were minced and digested with dispase (50 U/ml) in DMEM media containing 5% serum for 1 hour. Pleural effusions were centrifuged, washed once in PBS, and then plated. All primary cultures were initially grown on 6-well plates pre-coated with 2% Geltrex (Life Technologies; Carlsbad, CA) and 1% Maxgel (Sigma Aldrich). Maxgel is a humanized matrix, native and non-denatured. The inclusion of Maxgel in the system enhanced the initial attachment of primary tumor cells, partially because Maxgel provides a more natural ECM conformational substrate. The day after plating, the media containing unattached cells was typically transferred to a fresh plate, in most of cases generating new attached cultures. The media (Stem Cell Media) is the DMEM/F12 (Thermo-Fisher #11320-033 basic media) supplemented with the following components: Insulin-Transferrin-Sodium selenite (ITS; 1:1000; Sigma #11884); glutamine (Thermo-Fisher) to 4 mM final concentration; sodium pyruvate (Thermo-Fisher) to 2 mM final concentration; rock inhibitor (Y-27632) 10 micrograms/mL; 2-5% Knock Out Serum Replacement (KNOSR, Thermo-Fisher #10828-028); 0.5% ALBUMAX-(Lipid enriched BSA; Thermo-Fisher #11020-021); N2 Supplement (Thermo-Fisher) 1:250; EGF (5 ng/ml; Peprotech); hFGF (20 ng/ml; Bechman); and IGF-1 (Peprotech; 10-20 ng/ml).
as §1, §2

MP1 cells = assay: Seahorse OCR and ATP in patient-derived cells; details: GMSC versus monolayer; treatment 3 hours
Procedure: as §3, §1, §2

O=C(O)c1ccccc1NS(=O)(=O)c1ccc(Cl)c([N+](=O)[O-])c1 [CTPI-2]
lactic acid levels (H1299 cells [1]; monolayer cultures): increase in lactic acid levels
ECAR rates (H1299 cells [1]; monolayer cultures, after 10 mM glucose injection): starkly induced
ECAR and lactic acid levels (H1299 cells [1]; spheres): remained unchanged or were slightly diminished
cell cycle effect in spheres (H1299 spheres): modestly cytostatic
sphere forming capacity, compared with CTPI-1 (H1299 cells [2]; FIG. 2E): inhibited sphere forming capacity more efficiently than CTPI-1
activity in spheres versus 2D/monolayer cultures (H1299 cells [2]; sphere forming assay compared with monolayer): significantly more prominent in spheres than in 2D cultures
increase of oxygen consumption rates, basal, SRC and mitochondrial ATP output in GMSC cells (MP2 cells; GMSC versus monolayer, treatment 3 hours): reverted by CTPI-2 more prominently in CSCs than in monolayer cultures
basal respiration, SRC and ATP production in cisplatin treated cells (MP2 cells; monolayer cells exposed to cisplatin (FIG. 15A)): blocked basal respiration, SRC and ATP production
increase of oxygen consumption rates, basal, SRC and mitochondrial ATP output in GMSC cells (MP1 cells): reverted by CTPI-2 more prominently in CSCs than in monolayer cultures
